Assay results as given in ChEMBL document CHEMBL1157527 (2008).

Tested on: Candida albicans
Test: Antifungal activity against Candida albicans; note: unit not given here
Format: functional

| Structure (SMILES) | p(1/MIC) |
| --- | --- |
| CCCCCCC(C)(O)C[N+](C)(C)[BH2-]C#N (stereo unspecified) | 3.344 |
| CCCCCCCCCCC[N+](C)(C)[BH-](Br)C#N (stereo unspecified) | 1.69 |
| C[N+](C)([BH2-]C#N)CCCCCCCCCC[N+](C)(C)[BH2-]C#N | 2.611 |
| C=CCCCC[N+](C)(C)[BH2-]C#N | 1.973 |
| C[N+](C)(C)[B-](Br)(Br)C#N | 3.295 |
| CCCCCCCCCCC[N+](C)(C)[B-](Br)(Br)C#N | 1.591 |
| Cc1c(Cn2ccnc2)c2cc(Br)ccc2n1Cc1ccccc1F | 2.415 |
| Cc1c(Cn2ccnc2)c2cc(Br)ccc2n1Cc1ccc(F)cc1 | 2.415 |
| Cc1c(Cn2ccnc2)c2cc(Br)ccc2n1Cc1ccc(Cl)cc1 | 1.902 |
| CCCCCCCCCCCCCCOP(=O)(OCCC#N)OC(Cn1cncn1)(Cn1cncn1)c1ccc(F)cc1F (stereo unspecified) | 3.17 |
| N#CCCOP(=O)(OCCCCCCCCCCCBr)OC(Cn1cncn1)(Cn1cncn1)c1ccc(F)cc1F (stereo unspecified) | 3.392 |
| CCCCCCCCCCCCCCC[N+](C)(C)[BH2-]C#N | 1.724 |
| C[N+](C)(CCCCCCCCCC[N+](C)(C)[BH-](Br)C#N)[BH-](Br)C#N (stereo unspecified) | 2.146 |
| C[N+](C)(CCCCCCCCCC[N+](C)(C)[B-](Br)(Br)C#N)[B-](Br)(Br)C#N | 2.017 |
| CCCCCCCCCCCCC[N+](C)(C)[BH2-]C#N | 1.763 |
| C[N+](C)([BH2-]C#N)CC1(O)C=CCC1 (stereo unspecified) | 3.142 |
| CC(Br)C(=O)OC(Cn1cncn1)(Cn1cncn1)c1ccc(F)cc1F (stereo unspecified) | 3.172 |
| CCCC(Br)C(=O)OC(Cn1cncn1)(Cn1cncn1)c1ccc(F)cc1F (stereo unspecified) | 2.768 |
| C[N+](C)([BH2-]C(=O)O)CCCCCCCCCC[N+](C)(C)[BH2-]C(=O)O | 2.274 |
| C[N+](C)([BH2-]C#N)CCCCCCCCCCCC[N+](C)(C)[BH2-]C#N | 1.982 |
| C[N+](C)([BH2-]C#N)CCCCCCCCCCCCCC[N+](C)(C)[BH2-]C#N | 1.634 |
| CCCCC(Br)C(=O)OC(Cn1cncn1)(Cn1cncn1)c1ccc(F)cc1F (stereo unspecified) | 2.1 |
| O=C(OC(Cn1cncn1)(Cn1cncn1)c1ccc(F)cc1F)C(Br)CCCCCCCCCCBr (stereo unspecified) | 1.342 |
| CC(=O)Oc1ccccc1C(=O)OC(Cn1cncn1)(Cn1cncn1)c1ccc(F)cc1F | 3.413 |
| CCCCCCCCCCC(Br)C(=O)OC(Cn1cncn1)(Cn1cncn1)c1ccc(F)cc1F (stereo unspecified) | 3.412 |
| CCCCCCCCCCCCCC(=O)OC(Cn1cncn1)(Cn1cncn1)c1ccc(F)cc1F | 3.143 |

| Structure (SMILES) | p(1/MIC) |
| --- | --- |
| CCCCCCCCCCCOP(=O)(OC)OC(Cn1cncn1)(Cn1cncn1)c1ccc(F)cc1F (stereo unspecified) | 3.138 |
| C=CCCCCCCCCCOP(=O)(OC)OC(Cn1cncn1)(Cn1cncn1)c1ccc(F)cc1F (stereo unspecified) | 2.616 |
| CCCCCCCCCCCOP(=O)(OCCC#N)OC(Cn1cncn1)(Cn1cncn1)c1ccc(F)cc1F (stereo unspecified) | 2.494 |
| C=CCCCCCCCCCOP(=O)(OCCC#N)OC(Cn1cncn1)(Cn1cncn1)c1ccc(F)cc1F (stereo unspecified) | 2.314 |
| C=CCCCCCCCCCOP(=O)(O)OC(Cn1cncn1)(Cn1cncn1)c1ccc(F)cc1F | 3.445 |
| CCCCCCCCCCCCCCOP(=O)(O)OC(Cn1cncn1)(Cn1cncn1)c1ccc(F)cc1F | 3.208 |
| CCCCCCCCOP(=O)(OCCC#N)OC(Cn1cncn1)(Cn1cncn1)c1ccc(F)cc1F (stereo unspecified) | 3.091 |
| C=CCC[N+](C)(C)[BH2-]C#N | 2.672 |
| CCCCCCCCCC(O)C[N+](C)(C)[BH2-]C#N (stereo unspecified) | 2.692 |
| CCCCCCCCCCC[N+](C)(C)[BH2-]C#N | 1.512 |
| C[N+](C)([BH2-]C#N)CC(O)c1ccccc1 (stereo unspecified) | 2.389 |
| CCCCCCCCCCC[N+](C)(C)[BH-](F)C#N (stereo unspecified) | 1.806 |
| O=C(OCCCl)OC(Cn1cncn1)(Cn1cncn1)c1ccc(F)cc1F | 3.374 |
| CCCCCCC(Br)C(=O)OC(Cn1cncn1)(Cn1cncn1)c1ccc(F)cc1F (stereo unspecified) | 1.431 |
| CC(=O)OC(Cn1cncn1)(Cn1cncn1)c1ccc(F)cc1F | 3.61 |
| CCC(Br)C(=O)OC(Cn1cncn1)(Cn1cncn1)c1ccc(F)cc1F (stereo unspecified) | 2.846 |
| CCCCCCCCCCCOP(=O)(O)OC(Cn1cncn1)(Cn1cncn1)c1ccc(F)cc1F | 3.148 |
| CCCCCCCCOP(=O)(OC)OC(Cn1cncn1)(Cn1cncn1)c1ccc(F)cc1F (stereo unspecified) | 2.962 |
| O=P(O)(OCCCCCCCCCCCBr)OC(Cn1cncn1)(Cn1cncn1)c1ccc(F)cc1F | 3.377 |
| CCCCCCCCCCCC[N+](C)(C)[BH2-]C#N [(CYANOBORANYLIDENE)(DODECYL)DIMETHYLAMINE] | 1.785 |
| CC[N+](C)(C)[BH2-]C#N [(CYANOBORANYLIDENE)(ETHYL)DIMETHYLAMINE] | 3.649 |
| CCCCCCCCC[N+](C)(C)[BH2-]C#N [(CYANOBORANYLIDENE)DIMETHYLNONYLAMINE] | 2.176 |
| CCCCC[N+](C)(C)[BH2-]C#N [(CYANOBORANYLIDENE)DIMETHYLPENTYLAMINE] | 2.909 |
| C[N+](C)([BH2-]C#N)C[Si](C)(C)C [(CYANOBORANYLIDENE)DIMETHYL[(TRIMETHYLSILYL)METHYL]AMINE] | 3.468 |
| C[N+](C)(C)[BH2-]C#N [(CYANOBORANYLIDENE)TRIMETHYLAMINE] | 3.708 |
| CCCC[N+](C)(C)[BH2-]C#N [BUTYL(CYANOBORANYLIDENE)DIMETHYLAMINE] | 3.553 |

Now from value to compound:

| p(1/MIC) | Structure (SMILES) |
| --- | --- |
| 1.117 | Fc1ccc(Cn2cc(Cn3ccnc3)c3ccccc32)cc1 |
| 1.138 | CC(C)C(c1cn(Cc2ccc(Cl)cc2)c2ccccc12)n1ccnc1 (stereo unspecified) |
| 1.147 | Clc1ccc(Cn2cc(Cn3ccnc3)c3ccccc32)c(Cl)c1 |
| 2.397 | Cc1c(Cn2ccnc2)c2cc(Br)ccc2n1Cc1ccccc1Cl |
| 2.496 | Cc1c(Cn2ccnc2)c2ccccc2n1Cc1ccc(F)cc1 |
| 1.819 | Cc1c(C(C)n2ccnc2)c2ccccc2n1Cc1ccc(F)cc1 (stereo unspecified) |
| 2.404 | Cc1c(C(C)n2ccnc2)c2ccccc2n1Cc1ccc(Br)cc1 (stereo unspecified) |
| 1.432 | Cc1c(Cn2ccnc2)c2ccccc2n1Cc1cc(Cl)ccc1Cl |
| 1.813 | O=C(Nc1ccc2oc(-c3ccc(F)cc3)nc2c1)SCc1ccccc1 |
| 1.544 | O=C(Nc1ccc2oc(-c3ccccc3)nc2c1)OCc1ccc(Cl)cc1 |
| 1.839 | O=C(Nc1ccc2oc(-c3ccccc3)nc2c1)SCc1ccccc1 |
| 1.532 | O=C(Cc1ccc([N+](=O)[O-])cc1)Nc1ccc2oc(-c3ccc(F)cc3)nc2c1 |
| 2.127 | O=C(CCc1ccccc1)Nc1ccc2oc(-c3ccc(F)cc3)nc2c1 |
| 1.806 | O=C(Nc1ccc2oc(-c3ccc(F)cc3)nc2c1)OCc1ccc(Cl)cc1 |
| 1.82 | O=C(Cc1ccccc1)Nc1ccc2oc(-c3ccc(F)cc3)nc2c1 |
| 1.82 | CN(C)c1ccc(-c2nc3cc(NC(=O)CCc4ccccc4)ccc3o2)cc1 |
| 2.143 | CN(C)c1ccc(-c2nc3cc(NC(=O)OCc4ccccc4)ccc3o2)cc1 |
| 1.875 | CN(C)c1ccc(-c2nc3cc(NC(=O)OCc4ccc(Cl)cc4)ccc3o2)cc1 |
| 1.477 | CCc1ccc(-c2nc3cc(NC(=O)OCc4ccccc4)ccc3o2)cc1 |
| 1.792 | CCc1ccc(-c2nc3cc(NC(=O)OCc4ccc(Cl)cc4)ccc3o2)cc1 |
| 1.924 | Clc1ccc(Cn2cc(Cn3ccnc3)c3ccccc32)cc1 |
| 1.208 | CC(C)(C)C(c1cn(Cc2ccc(Cl)cc2)c2ccccc12)n1ccnc1 (stereo unspecified) |
| 1.695 | Fc1ccc(Cn2cc(Cn3ccnc3)c3ccccc32)c(F)c1 |
| 0.474 | Cc1c(Cn2ccnc2)c2ccccc2n1Cc1ccc(Cl)cc1 |
| 1.813 | CCc1ccc(-c2nc3cc(NC(=O)CCc4ccccc4)ccc3o2)cc1 |
| 2.161 | CCc1ccc(-c2nc3cc(NC(=O)SCc4ccccc4)ccc3o2)cc1 |
| 1.505 | O=C(Nc1ccc2oc(-c3ccccc3)nc2c1)OCc1ccccc1 |
| 2.1 | O=C(Nc1ccc2oc(-c3ccc(F)cc3)nc2c1)c1ccccc1 |
| 1.785 | O=C(Nc1ccc2oc(-c3ccc(F)cc3)nc2c1)OCc1ccccc1 |
